Assay [1] can be described thus: EDS rat model, androgen (serum testosterone) level after EDS injection. Format: in vivo, Sprague-Dawley rat. The note with it: adult rat, intraperitoneal EDS 7.5 mg/100 g bodyweight; restored in about two weeks. As for the experimental part:
The “▴” line represents rat serum testosterone level at various time intervals after EDS injection. The “♦” line represents rat Bin1b expression changes which are calibrated by 18s level.
Adult Sprague-Dawley was intraperitoneally injected with EDS (7.5 mg/100 g bodyweight) in DMSO-H2O (1:3, v/v). The rats were sacrificed on day 1, 3, 7, 14, 21, 28 and 42. The rat without EDS injection served as the negative control. 20 ug total RNA was extracted from rat caput epididymis, fractionated by 1.2% formaldehyde agarose gel electrophoresis, blotted onto Hybond-N+ membrane and hybridized with a probe located at Bin1b cDNA 3′ terminal and 18s ribosome RNA probe.

The subject of a further assay is E. coli. Description: Antimicrobial activity of secretions of primary epididymal epithelial cultures, CFU counting. Format: cell-based. To be noted: concluded from caput culture secretions and antisense block. Here is the method: FIG. 7A. […] 100 colony forming units (CFU) of E. coli was added to cultures 16 hours prior to examination.
A total of 100 colony-forming units (CFU) of E. coli was added to the apical compartment of the epithelial cells separately from caput epididymis and cauda epididymis. The medium was collected 16 hours later for CFU counting.

Take `CS(=O)(=O)OCCOS(C)(=O)=O` [EDS, Ethylene Dinethamesulfonate]: the “secretion of androgen after EDS injection” value in assay [1] is “decreased immediately”.

B1: Bin1b: natural antibacterial peptide of beta-defensin family expressed in rat caput epididymidis; SEQ ID NO:2, mature form SEQ ID NO:3 (protein, listed as Homo sapiens)
chain: MKVLLLFAVFFCLVQRNSGDIPPGIRNTVCFMQRGHCRLFMCRSGERKGDICSDPWNRCCVSSSIKNR
modifications: ends and bridges not checked
Turning to B1, in the assay on E. coli, the “antimicrobial activity of Bin1b” value was “antimicrobial activity”.
